Measurements as given in paper PMC6273578, “Design, Synthesis and Biological Evaluation of Benzohydrazide Derivatives Containing Dihydropyrazoles as Potential EGFR Kinase Inhibitors” (Molecules, 2016).
Where two headings read alike, the source gives them in different places.

Columns and labels:
[1] = system: A549 cells; experiment: MTT antiproliferative assay, A549; assay type: cell-based, human; conditions: read-out: In vitro antiproliferative activity IC50, A549
Procedure: (§1) IC50 values of the test compounds against A549, MCF-7, Hela and HepG2 cells were obtained from State Key Laboratory of Pharmaceutical Biotechnology, Nanjing University, and were determined by a standard (MTT)-based colorimetric assay (Beyotime Inst. Biotech., Nanjing, China). Tumor cell lines were grown to mid-log phase and then diluted to […] making sure they were seeded in 96-well plates (Philas, Nanjing, China) at a density of 5 × 10^3–1 × 10^4 cells per well. The outer wells containing 1 × PBS solution of the plate are not used for the assay to avoid the possibility of edge effects. The plate was incubated at 37 °C in a 5% CO2 incubator in DMEM containing 10% fetal bovine serum (FBS, Gibco, Waltham, MA, USA) for 24 h. Then, we added a 100-μL series concentration of drug-containing medium into the wells to maintain the final concentration of drug as 100, 10, 1 and 0.1 μmol/L. After 12 h, cell survival was determined by the addition of a MTT (3-(4,5-dimethylthiazol-2-yl)-2,5-diphenyl trtrazolium bromide) solution (10 μL of 5 mg/mL MTT in 1 × PBS). We waited for 4 h proliferation, discarded the medium and quickly added 150 μL DMSO per well, shaking the plates well for 10 min to ensure complete dissolution. Optical absorbance was measured at 570 nm on a microplate reader (Bio-Rad, Hercules, CA, USA). Survival ratios are expressed in percentages with respect to untreated cells. The experiments were replicated at least three times to verify the methodology reproducibility when using the above-mentioned conditions.

[2] = system: MCF-7 cells; experiment: MTT antiproliferative assay, MCF-7; assay type: cell-based, human
Procedure: as §1

[3] = system: HeLa cells; experiment: MTT antiproliferative assay, HeLa; assay type: cell-based, human; conditions: read-out: In vitro antiproliferative activity IC50, HeLa
Procedure: as §1

[4] = system: HepG2 cells; experiment: MTT antiproliferative assay, HepG2; assay type: cell-based, human; conditions: read-out: In vitro antiproliferative activity IC50, HepG2
Procedure: as §1

[5] = system: 293T human kidney epithelial cells; experiment: Cytotoxicity test (MTT) on 293T cells; conditions: read-out: median cytotoxic concentration CC50; 293T cells, MTT assay, 24 h
Procedure: (§2) The cytotoxic activity in vitro was measured by the colorimetric MTT assay. […] For the cytotoxicity assay, 20 μL of MTT (5 mg/mL) was added per well 4 h before the end of the incubation. After removing the supernatant, 200 μL DMSO was added to dissolve the formazan crystals. The absorbance at λ 570 nm was read on an LX300 Epson Diagnostic microplate reader, untreated cells were used as negative controls.

[6] = target: epidermal growth factor receptor (EGFR) (Homo sapiens, UniProt P00533); experiment: EGFR kinase inhibition, solid-phase ELISA assay
Procedure: All these newly synthesized compounds were evaluated for their inhibitory activities against EGFR kinases using a solid-phase ELISA assay.
EGFR tyrosine kinase activity was determined by an enzyme linked-immunosorbent assay (ELISA) in 96-well plates precoated in a 10 mL reaction volume including 4 mL diluted test compounds, 4 mL substrate and 2 mL ATP. […] The plates were then aspirated and washed twice with 200 mL 0.9% (w/v) NaCl, and incorporation of Pi was determined with an LX300 Epson Diagnostic microplate reader. […] The experiments were replicated at least three times to verify the methodology reproducibility when using the above-mentioned conditions.

[7] = Cytotoxicity test (MTT) on 293T cells; conditions: human, 293T human kidney epithelial cells
Procedure: as §2

[8] = read-out: In vitro antiproliferative activity IC50, MCF-7
[9] = read-out: Inhibition activity IC50 against EGFR, solid-phase ELISA assay
[10] = Homo sapiens, MCF7, read-out: In vitro antiproliferative activity IC50, MCF-7

epidermal growth factor receptor (EGFR), sequence (P00533 25-1210): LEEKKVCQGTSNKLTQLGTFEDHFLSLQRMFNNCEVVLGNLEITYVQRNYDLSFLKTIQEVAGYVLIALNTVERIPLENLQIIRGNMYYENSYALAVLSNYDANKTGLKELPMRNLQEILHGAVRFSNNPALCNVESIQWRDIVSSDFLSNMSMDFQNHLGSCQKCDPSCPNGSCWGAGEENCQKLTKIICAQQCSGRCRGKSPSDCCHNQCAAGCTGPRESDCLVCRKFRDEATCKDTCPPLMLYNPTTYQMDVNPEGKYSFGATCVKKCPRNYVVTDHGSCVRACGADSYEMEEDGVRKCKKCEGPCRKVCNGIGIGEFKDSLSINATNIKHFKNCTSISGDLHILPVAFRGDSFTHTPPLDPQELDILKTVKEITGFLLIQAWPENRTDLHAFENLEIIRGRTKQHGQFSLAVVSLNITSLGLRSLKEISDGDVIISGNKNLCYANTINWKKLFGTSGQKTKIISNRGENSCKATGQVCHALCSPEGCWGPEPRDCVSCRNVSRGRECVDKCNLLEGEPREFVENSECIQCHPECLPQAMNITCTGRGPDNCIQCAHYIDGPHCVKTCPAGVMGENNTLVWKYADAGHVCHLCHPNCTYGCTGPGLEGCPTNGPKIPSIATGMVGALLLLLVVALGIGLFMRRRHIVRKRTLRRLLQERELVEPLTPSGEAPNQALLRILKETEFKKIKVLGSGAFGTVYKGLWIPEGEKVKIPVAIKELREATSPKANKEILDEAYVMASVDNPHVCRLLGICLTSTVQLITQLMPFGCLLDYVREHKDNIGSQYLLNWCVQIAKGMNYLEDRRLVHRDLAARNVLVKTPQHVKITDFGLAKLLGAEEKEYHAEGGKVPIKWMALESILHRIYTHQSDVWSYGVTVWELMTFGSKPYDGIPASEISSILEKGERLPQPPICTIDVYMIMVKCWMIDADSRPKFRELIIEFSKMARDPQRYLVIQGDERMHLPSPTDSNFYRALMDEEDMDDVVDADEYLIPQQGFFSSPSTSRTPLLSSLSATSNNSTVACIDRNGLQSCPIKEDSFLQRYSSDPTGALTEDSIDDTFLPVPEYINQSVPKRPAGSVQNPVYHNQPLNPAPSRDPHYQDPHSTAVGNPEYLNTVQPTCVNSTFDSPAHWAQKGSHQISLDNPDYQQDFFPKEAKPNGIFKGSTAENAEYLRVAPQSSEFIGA

| Compound | IC50 [1] | IC50 [2, 8] | IC50 [3] | IC50 [4] | CC50 [5] | IC50 [6, 9] | IC50 ([1]; Homo sapiens) | IC50 [2, 10] | IC50 ([3]; Homo sapiens) | IC50 ([4]; Homo sapiens) | CC50 at 24 h [7] | melting point | IC50 [6] |
| --- | --- | --- | --- | --- | --- | --- | --- | --- | --- | --- | --- | --- | --- |
| COc1ccc(/C=N/NC(=O)c2ccc(N3N=C(c4ccccc4C)CC3c3ccc4ccccc4c3)cc2)cc1 (centres unmarked) [Compound H18, (E)-N′-(4-Methoxybenzylidene)-4-(5-(naphthalen-2-yl)-3-(o-tolyl)-4,5-dihydro-1H-pyrazol-1-yl)benzo-hydrazide] | 1.22 µM | 1.63 µM | 0.78 µM | 0.56 µM | 90.6 µM | 0.48 µM | – | – | – | – | – | – | – |
| (E)-4-(3-(4-Ethylphenyl)-5-(naphthalen-2-yl)-4,5-dihydro-1H-pyrazol-1-yl)-N′-(4-methoxybenzylidene)-benzohydrazide [Compound H21] | 4.54 µM | 6.33 µM | 7.93 µM | 5.06 µM | 82.6 µM | – | – | – | – | – | – | – | – |
| COc1cccc(/C=N/NC(=O)c2ccc(N3N=C(c4ccccc4)CC3c3ccc4ccccc4c3)cc2)c1 (centres unmarked) [Compound H1, (E)-N′-(3-Methoxybenzylidene)-4-(5-(naphthalen-2-yl)-3-phenyl-4,5-dihydro-1H-pyrazol-1-yl)benzo-hydrazide] | 14.5 µM | 21 µM | 22.5 µM | 28.8 µM | 98.6 µM | 8.47 µM | – | – | – | – | – | – | – |
| COc1cccc(/C=N/NC(=O)c2ccc(N3N=C(c4ccccc4C)CC3c3ccc4ccccc4c3)cc2)c1 (centres unmarked) [Compound H2, (E)-N′-(3-Methoxybenzylidene)-4-(5-(naphthalen-2-yl)-3-(o-tolyl)-4,5-dihydro-1H-pyrazol-1-yl)benzo-hydrazide] | 1.41 µM | 1.52 µM | 0.6 µM | 0.67 µM | 87.5 µM | 0.65 µM | – | – | – | – | – | – | – |
| COc1ccc(/C=N/NC(=O)c2ccc(N3N=C(c4ccccc4)CC3c3ccc4ccccc4c3)cc2)cc1 (centres unmarked) [Compound H17, (E)-N′-(4-Methoxybenzylidene)-4-(5-(naphthalen-2-yl)-3-phenyl-4,5-dihydro-1H-pyrazol-1-yl)benzo-hydrazide] | 13.3 µM | 18.4 µM | 20.7 µM | 26.7 µM | 94.2 µM | 7.89 µM | – | – | – | – | – | – | – |
| COc1cccc(/C=N/NC(=O)c2ccc(N3N=C(c4cccc(C)c4)CC3c3ccc4ccccc4c3)cc2)c1 (centres unmarked) [Compound H3, (E)-N′-(3-Methoxybenzylidene)-4-(5-(naphthalen-2-yl)-3-(m-tolyl)-4,5-dihydro-1H-pyrazol-1-yl)benzo-hydrazide] | 3.02 µM | 2.89 µM | 2.45 µM | 3.54 µM | 92.3 µM | 2.12 µM | – | – | – | – | – | – | – |
| (E)-N′-(3-Methoxybenzylidene)-4-(3-(4-methoxyphenyl)-5-(naphthalen-2-yl)-4,5-dihydro-1H-pyrazol-1-yl)-benzohydrazide [Compound H6] | 8.32 µM | 10.2 µM | 13.2 µM | 11.5 µM | 81.8 µM | – | – | – | – | – | – | – | – |
| (E)-4-(3-(4-Ethylphenyl)-5-(naphthalen-2-yl)-4,5-dihydro-1H-pyrazol-1-yl)-N′-(3-methoxybenzylidene)-benzohydrazide [Compound H5] | 5.49 µM | 7.72 µM | 8.71 µM | 6.16 µM | 92.5 µM | – | – | – | – | – | – | – | – |
| COc1cccc(/C=N/NC(=O)c2ccc(N3N=C(c4ccc(C)cc4)CC3c3ccc4ccccc4c3)cc2)c1 (centres unmarked) [Compound H4, (E)-N′-(3-Methoxybenzylidene)-4-(5-(naphthalen-2-yl)-3-(p-tolyl)-4,5-dihydro-1H-pyrazol-1-yl)benzo-hydrazide] | 0.43 µM | 0.69 µM | 0.45 µM | 0.51 µM | 98.8 µM | 0.23 µM | – | – | – | – | – | – | – |
| COc1ccc(/C=N/NC(=O)c2ccc(N3N=C(c4ccc(F)cc4)CC3c3ccc4ccccc4c3)cc2)cc1 (centres unmarked) [Compound H27, (E)-4-(3-(4-Fluorophenyl)-5-(naphthalen-2-yl)-4,5-dihydro-1H-pyrazol-1-yl)-N'-(4-methoxybenzylidene)-benzohydrazide] | – | – | – | – | – | – | 44.1 µM | 59 µM | 54.2 µM | 62.9 µM | 89.4 µM | 236 to 238 °C | 13.8 µM |
| COc1ccc(/C=N/NC(=O)c2ccc(N3N=C(c4cccc(C)c4)CC3c3ccc4ccccc4c3)cc2)cc1 (centres unmarked) [Compound H19, (E)-N′-(4-Methoxybenzylidene)-4-(5-(naphthalen-2-yl)-3-(m-tolyl)-4,5-dihydro-1H-pyrazol-1-yl)benzo-hydrazide] | 2.24 µM | 2.45 µM | 1.19 µM | 3.26 µM | 92.6 µM | 1.25 µM | – | – | – | – | – | – | – |
| (E)-N′-(4-Methoxybenzylidene)-4-(3-(4-methoxyphenyl)-5-(naphthalen-2-yl)-4,5-dihydro-1H-pyrazol-1-yl)-benzohydrazide [Compound H22] | 7.12 µM | 9.69 µM | 12.3 µM | 10.5 µM | 84.7 µM | – | – | – | – | – | – | – | – |
| COc1ccc(/C=N/NC(=O)c2ccc(N3N=C(c4cccc(F)c4)CC3c3ccc4ccccc4c3)cc2)cc1 (centres unmarked) [Compound H26, (E)-4-(3-(3-Fluorophenyl)-5-(naphthalen-2-yl)-4,5-dihydro-1H-pyrazol-1-yl)-N′-(4-methoxybenzylidene)-benzohydrazide] | – | – | – | – | – | – | 56.4 µM | 77.5 µM | 85.2 µM | 80.1 µM | 94.3 µM | 240 to 242 °C | 18.6 µM |
| COc1ccc(/C=N/NC(=O)c2ccc(N3N=C(c4ccc(Br)cc4)CC3c3ccc4ccccc4c3)cc2)cc1 (centres unmarked) [Compound H32, (E)-4-(3-(4-Bromophenyl)-5-(naphthalen-2-yl)-4,5-dihydro-1H-pyrazol-1-yl)-N′-(4-methoxybenzylidene)-benzohydrazide] | – | – | – | – | – | – | 19.7 µM | 30.2 µM | 25.6 µM | 32.9 µM | 83.6 µM | 238 to 240 °C | 8.64 µM |
| CCOc1ccc(C2=NN(c3ccc(C(=O)N/N=C/c4ccc(OC)cc4)cc3)C(c3ccc4ccccc4c3)C2)cc1 (centres unmarked) [Compound H24, (E)-4-(3-(4-Ethoxyphenyl)-5-(naphthalen-2-yl)-4,5-dihydro-1H-pyrazol-1-yl)-N′-(4-methoxybenzylidene)-benzohydrazide] | – | – | – | – | – | – | 9.92 µM | 13.8 µM | 15.3 µM | 18.6 µM | 81.3 µM | 237 to 239 °C | 6.65 µM |
| COc1cccc(/C=N/NC(=O)c2ccc(N3N=C(c4cccc(Cl)c4)CC3c3ccc4ccccc4c3)cc2)c1 (centres unmarked) [Compound H13, (E)-4-(3-(3-Chlorophenyl)-5-(naphthalen-2-yl)-4,5-dihydro-1H-pyrazol-1-yl)-N′-(3-methoxybenzylidene)-benzohydrazide] | – | – | – | – | – | – | 35.2 µM | 51.3 µM | 46.4 µM | 45.4 µM | 93.4 µM | 231 to 233 °C | 11.9 µM |
| COc1cccc(/C=N/NC(=O)c2ccc(N3N=C(c4ccccc4F)CC3c3ccc4ccccc4c3)cc2)c1 (centres unmarked) [Compound H9, (E)-4-(3-(2-Fluorophenyl)-5-(naphthalen-2-yl)-4,5-dihydro-1H-pyrazol-1-yl)-N′-(3-methoxybenzylidene)-benzohydrazide] | – | – | – | – | – | – | 50.6 µM | 70.4 µM | 63.8 µM | 76.5 µM | 83.4 µM | 235 to 237 °C | 16.2 µM |
